How the values were obtained:
Test in all cases: RBC kinase panel
Type in all cases: biochemical
Settings in all cases: ATP 10 μM, Data1, Data2
ALK2/ACVR1 = biological target: T1, ALK2/ACVR1 (Homo sapiens, UniProt Q04771)
T1 construct: purchased Reaction Biology Corporation
How it was run: (§1)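 Duplicate determinations were made for each of 369 human kinases exposed to 1 μM compound, with reactions run at 10 μM ATP.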

ARK5/NUAK1 = biological target: T2, ARK5/NUAK1 (Homo sapiens, UniProt O60285)
T2 construct: purchased Reaction Biology Corporation
How it was run: as §1

BTK = biological target: T3, BTK (Homo sapiens, UniProt Q06187)
T3 construct: purchased Reaction Biology Corporation
T3 sequence (Q06187 whole entry): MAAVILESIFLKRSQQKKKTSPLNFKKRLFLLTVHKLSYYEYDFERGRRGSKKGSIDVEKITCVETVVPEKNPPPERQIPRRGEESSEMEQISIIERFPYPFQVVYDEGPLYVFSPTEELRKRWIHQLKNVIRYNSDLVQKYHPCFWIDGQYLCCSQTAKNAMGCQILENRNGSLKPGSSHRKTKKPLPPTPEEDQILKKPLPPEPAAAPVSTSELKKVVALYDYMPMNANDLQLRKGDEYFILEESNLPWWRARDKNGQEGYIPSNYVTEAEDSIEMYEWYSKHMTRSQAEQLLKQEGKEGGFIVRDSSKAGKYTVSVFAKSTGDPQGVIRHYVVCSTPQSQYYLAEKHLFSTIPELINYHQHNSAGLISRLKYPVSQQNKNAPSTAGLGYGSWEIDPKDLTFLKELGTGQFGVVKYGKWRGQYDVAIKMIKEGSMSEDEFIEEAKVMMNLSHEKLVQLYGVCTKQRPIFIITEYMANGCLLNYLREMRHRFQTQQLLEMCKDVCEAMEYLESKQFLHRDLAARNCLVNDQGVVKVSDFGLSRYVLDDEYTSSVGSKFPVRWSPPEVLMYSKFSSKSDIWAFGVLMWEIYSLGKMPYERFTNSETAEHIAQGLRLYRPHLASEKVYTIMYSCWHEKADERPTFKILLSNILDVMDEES
How it was run: as §1

CDC7/DBF4 = biological target: T4, CDC7/DBF4 (Homo sapiens, UniProt O00311)
T4 construct: purchased Reaction Biology Corporation
How it was run: as §1

CDK1/cyclin B = biological target: T5, CDK1/cyclin B (Homo sapiens, UniProt P06493)
T5 construct: purchased Reaction Biology Corporation
T5 sequence (P06493 whole entry): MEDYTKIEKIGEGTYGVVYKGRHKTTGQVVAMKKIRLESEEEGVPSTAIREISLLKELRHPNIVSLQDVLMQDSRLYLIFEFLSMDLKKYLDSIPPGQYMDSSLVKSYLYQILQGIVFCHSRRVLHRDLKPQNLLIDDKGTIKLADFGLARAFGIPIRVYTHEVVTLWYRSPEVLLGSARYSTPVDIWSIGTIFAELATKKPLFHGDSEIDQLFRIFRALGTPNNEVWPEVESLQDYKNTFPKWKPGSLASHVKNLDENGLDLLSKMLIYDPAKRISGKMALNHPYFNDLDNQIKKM
T5 sequence (P14635 whole entry partner): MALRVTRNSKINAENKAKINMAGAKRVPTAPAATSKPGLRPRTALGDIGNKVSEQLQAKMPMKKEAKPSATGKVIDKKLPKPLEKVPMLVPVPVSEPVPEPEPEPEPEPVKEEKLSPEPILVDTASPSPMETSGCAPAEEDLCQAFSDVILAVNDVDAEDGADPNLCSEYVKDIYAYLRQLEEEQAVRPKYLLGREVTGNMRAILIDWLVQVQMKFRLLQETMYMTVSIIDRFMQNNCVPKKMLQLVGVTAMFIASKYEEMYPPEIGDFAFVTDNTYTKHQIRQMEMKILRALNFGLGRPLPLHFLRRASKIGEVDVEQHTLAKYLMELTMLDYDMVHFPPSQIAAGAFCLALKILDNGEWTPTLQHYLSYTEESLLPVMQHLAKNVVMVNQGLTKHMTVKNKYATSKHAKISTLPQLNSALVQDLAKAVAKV
How it was run: as §1

CDK14/cyclin Y (PFTK1) = biological target: T6, CDK14/cyclin Y (PFTK1) (Homo sapiens, UniProt O94921)
T6 construct: purchased Reaction Biology Corporation
How it was run: as §1

CDK2/cyclin A = biological target: T7, CDK2/cyclin A (Homo sapiens, UniProt P24941)
T7 construct: purchased Reaction Biology Corporation
How it was run: as §1

CK1g2 = biological target: T8, CK1g2 (Homo sapiens, UniProt P78368)
T8 construct: purchased Reaction Biology Corporation
T8 sequence (P78368 whole entry): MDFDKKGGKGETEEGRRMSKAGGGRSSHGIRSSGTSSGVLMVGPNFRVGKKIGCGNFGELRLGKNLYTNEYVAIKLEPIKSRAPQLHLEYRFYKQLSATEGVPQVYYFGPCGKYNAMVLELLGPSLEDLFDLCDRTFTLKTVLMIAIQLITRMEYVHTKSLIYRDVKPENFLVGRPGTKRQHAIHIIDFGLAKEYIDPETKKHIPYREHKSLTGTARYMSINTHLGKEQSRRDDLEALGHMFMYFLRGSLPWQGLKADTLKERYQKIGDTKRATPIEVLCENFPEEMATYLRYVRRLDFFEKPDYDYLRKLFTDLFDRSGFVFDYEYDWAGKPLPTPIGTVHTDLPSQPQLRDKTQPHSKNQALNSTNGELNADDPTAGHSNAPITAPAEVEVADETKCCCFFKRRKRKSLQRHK
How it was run: as §1

DDR2 = biological target: T9, DDR2 (Homo sapiens, UniProt Q16832)
T9 construct: purchased Reaction Biology Corporation
How it was run: as §1

EPHA5 = biological target: T10, EPHA5 (Homo sapiens, UniProt P54756)
T10 construct: purchased Reaction Biology Corporation
How it was run: as §1

ERBB2/HER2 = biological target: T11, ERBB2/HER2 (Homo sapiens, UniProt P04626)
T11 construct: purchased Reaction Biology Corporation
How it was run: as §1

FER = biological target: T12, FER (Homo sapiens, UniProt P16591)
T12 construct: purchased Reaction Biology Corporation
T12 sequence (P16591 whole entry): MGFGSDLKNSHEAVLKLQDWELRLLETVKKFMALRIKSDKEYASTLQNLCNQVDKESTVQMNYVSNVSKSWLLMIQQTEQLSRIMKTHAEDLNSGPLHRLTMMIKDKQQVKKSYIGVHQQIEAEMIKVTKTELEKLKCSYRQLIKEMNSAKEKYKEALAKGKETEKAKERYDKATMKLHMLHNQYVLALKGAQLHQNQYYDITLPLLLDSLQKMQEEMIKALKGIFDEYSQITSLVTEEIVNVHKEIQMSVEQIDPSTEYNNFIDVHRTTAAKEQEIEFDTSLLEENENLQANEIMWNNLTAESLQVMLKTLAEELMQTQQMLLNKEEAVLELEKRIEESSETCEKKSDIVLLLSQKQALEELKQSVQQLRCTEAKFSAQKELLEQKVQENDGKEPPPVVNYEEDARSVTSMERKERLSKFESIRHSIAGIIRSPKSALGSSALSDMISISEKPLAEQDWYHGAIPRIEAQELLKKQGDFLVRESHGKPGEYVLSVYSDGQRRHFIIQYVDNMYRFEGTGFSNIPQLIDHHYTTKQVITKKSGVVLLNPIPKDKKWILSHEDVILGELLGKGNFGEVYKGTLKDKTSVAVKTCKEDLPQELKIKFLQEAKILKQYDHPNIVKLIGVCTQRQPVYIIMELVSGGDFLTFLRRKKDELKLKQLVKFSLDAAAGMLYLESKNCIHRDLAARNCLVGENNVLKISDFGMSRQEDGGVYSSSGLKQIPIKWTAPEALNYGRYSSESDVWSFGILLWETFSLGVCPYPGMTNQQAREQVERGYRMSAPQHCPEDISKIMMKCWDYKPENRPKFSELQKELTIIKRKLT
How it was run: as §1

GRK7 = biological target: T13, GRK7 (Homo sapiens, UniProt Q8WTQ7)
T13 construct: purchased Reaction Biology Corporation
T13 sequence (Q8WTQ7 whole entry): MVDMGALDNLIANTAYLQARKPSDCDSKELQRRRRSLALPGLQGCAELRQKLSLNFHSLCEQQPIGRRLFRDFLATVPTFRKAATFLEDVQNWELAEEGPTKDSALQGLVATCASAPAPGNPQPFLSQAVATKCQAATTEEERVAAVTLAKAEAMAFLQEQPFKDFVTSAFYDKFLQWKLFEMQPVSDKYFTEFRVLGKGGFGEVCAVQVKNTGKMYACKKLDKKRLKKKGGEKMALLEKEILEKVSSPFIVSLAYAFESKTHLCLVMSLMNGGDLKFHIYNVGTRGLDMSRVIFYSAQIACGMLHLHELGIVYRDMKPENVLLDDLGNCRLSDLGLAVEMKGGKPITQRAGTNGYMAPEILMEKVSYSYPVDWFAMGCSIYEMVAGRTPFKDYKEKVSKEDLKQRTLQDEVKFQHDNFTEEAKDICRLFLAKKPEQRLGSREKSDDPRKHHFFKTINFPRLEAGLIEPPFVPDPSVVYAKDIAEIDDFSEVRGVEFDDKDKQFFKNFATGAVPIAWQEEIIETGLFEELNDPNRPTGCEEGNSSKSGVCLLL
How it was run: as §1

IRAK4 = biological target: T14, IRAK4 (Homo sapiens, UniProt Q9NWZ3)
T14 construct: purchased Reaction Biology Corporation
How it was run: as §1

MEK3 = biological target: T15, MEK3 (Homo sapiens, UniProt P46734)
T15 construct: purchased Reaction Biology Corporation
How it was run: as §1

MKK4 = biological target: T16, MKK4 (Homo sapiens, UniProt P45985)
T16 construct: purchased Reaction Biology Corporation
How it was run: as §1

MLK4 = biological target: T17, MLK4 (Homo sapiens, UniProt Q5TCX8)
T17 construct: purchased Reaction Biology Corporation
How it was run: as §1

MSK2/RPS6KA4 = biological target: T18, MSK2/RPS6KA4 (Homo sapiens, UniProt O75676)
T18 construct: purchased Reaction Biology Corporation
How it was run: as §1

MST1/STK4 = biological target: T19, MST1/STK4 (Homo sapiens, UniProt Q13043)
T19 construct: purchased Reaction Biology Corporation
T19 sequence (Q13043 whole entry): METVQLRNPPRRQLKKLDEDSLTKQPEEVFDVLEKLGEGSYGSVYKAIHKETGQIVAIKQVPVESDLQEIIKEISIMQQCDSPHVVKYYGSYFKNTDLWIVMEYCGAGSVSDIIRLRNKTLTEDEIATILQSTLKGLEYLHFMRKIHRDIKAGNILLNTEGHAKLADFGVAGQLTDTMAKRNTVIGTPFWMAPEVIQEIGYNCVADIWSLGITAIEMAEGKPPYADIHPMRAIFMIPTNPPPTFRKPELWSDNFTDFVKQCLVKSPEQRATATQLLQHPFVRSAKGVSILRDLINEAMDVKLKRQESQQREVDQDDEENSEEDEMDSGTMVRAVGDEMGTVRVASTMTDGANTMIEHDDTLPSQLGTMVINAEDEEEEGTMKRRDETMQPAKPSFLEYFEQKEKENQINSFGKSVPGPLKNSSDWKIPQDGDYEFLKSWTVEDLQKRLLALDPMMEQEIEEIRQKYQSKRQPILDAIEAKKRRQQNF
How it was run: as §1

NEK11 = biological target: T20, NEK11 (Homo sapiens, UniProt Q8NG66)
T20 construct: purchased Reaction Biology Corporation
How it was run: as §1

NEK8 = biological target: T21, NEK8 (Homo sapiens, UniProt Q86SG6)
T21 construct: purchased Reaction Biology Corporation
How it was run: as §1

OSR1/OXSR1 = biological target: T22, OSR1/OXSR1 (Homo sapiens, UniProt O95747)
T22 construct: purchased Reaction Biology Corporation
How it was run: as §1

P38a/MAPK14 = biological target: T23, P38a/MAPK14 (Homo sapiens, UniProt Q16539)
T23 construct: purchased Reaction Biology Corporation
How it was run: as §1

P38g = biological target: T24, P38g (Homo sapiens, UniProt P53778)
T24 construct: purchased Reaction Biology Corporation
How it was run: as §1

PBK/TOPK = biological target: T25, PBK/TOPK (Homo sapiens, UniProt Q96KB5)
T25 construct: purchased Reaction Biology Corporation
How it was run: as §1

PHKg2 = biological target: T26, PHKg2 (Homo sapiens, UniProt P15735)
T26 construct: purchased Reaction Biology Corporation
How it was run: as §1

PKCmu/PRKD1 = biological target: T27, PKCmu/PRKD1 (Homo sapiens, UniProt Q15139)
T27 construct: purchased Reaction Biology Corporation
How it was run: as §1

PKG1b = biological target: T28, PKG1b (Homo sapiens, UniProt Q13976)
T28 construct: purchased Reaction Biology Corporation
How it was run: as §1

SRMS = biological target: T29, SRMS (Homo sapiens, UniProt Q9H3Y6)
T29 construct: purchased Reaction Biology Corporation
How it was run: as §1

TEC = biological target: T30, TEC (Homo sapiens, UniProt P42680)
T30 construct: purchased Reaction Biology Corporation
T30 sequence (P42680 whole entry): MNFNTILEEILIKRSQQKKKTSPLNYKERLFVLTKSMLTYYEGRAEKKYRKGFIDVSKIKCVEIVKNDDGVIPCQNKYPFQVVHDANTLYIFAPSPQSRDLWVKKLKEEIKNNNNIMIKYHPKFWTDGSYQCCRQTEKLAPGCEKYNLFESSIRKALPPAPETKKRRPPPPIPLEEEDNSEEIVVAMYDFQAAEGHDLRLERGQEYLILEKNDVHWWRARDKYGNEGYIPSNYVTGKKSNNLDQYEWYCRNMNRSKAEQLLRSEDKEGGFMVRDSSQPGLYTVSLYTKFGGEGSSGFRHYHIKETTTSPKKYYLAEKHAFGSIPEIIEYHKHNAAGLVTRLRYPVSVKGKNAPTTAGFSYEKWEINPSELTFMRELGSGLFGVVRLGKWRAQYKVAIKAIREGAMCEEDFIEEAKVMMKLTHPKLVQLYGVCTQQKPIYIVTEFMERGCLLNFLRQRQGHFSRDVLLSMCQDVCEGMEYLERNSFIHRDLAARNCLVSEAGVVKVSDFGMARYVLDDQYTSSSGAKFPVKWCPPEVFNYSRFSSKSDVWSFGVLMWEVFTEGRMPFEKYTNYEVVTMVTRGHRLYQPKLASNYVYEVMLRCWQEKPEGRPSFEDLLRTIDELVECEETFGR
How it was run: as §1

TESK1 = biological target: T31, TESK1 (Homo sapiens, UniProt Q15569)
T31 construct: purchased Reaction Biology Corporation
How it was run: as §1

TESK2 = biological target: T32, TESK2 (Homo sapiens, UniProt Q96S53)
T32 construct: purchased Reaction Biology Corporation
How it was run: as §1

VRK2 = biological target: T33, VRK2 (Homo sapiens, UniProt Q86Y07)
T33 construct: purchased Reaction Biology Corporation
T33 sequence (Q86Y07 whole entry): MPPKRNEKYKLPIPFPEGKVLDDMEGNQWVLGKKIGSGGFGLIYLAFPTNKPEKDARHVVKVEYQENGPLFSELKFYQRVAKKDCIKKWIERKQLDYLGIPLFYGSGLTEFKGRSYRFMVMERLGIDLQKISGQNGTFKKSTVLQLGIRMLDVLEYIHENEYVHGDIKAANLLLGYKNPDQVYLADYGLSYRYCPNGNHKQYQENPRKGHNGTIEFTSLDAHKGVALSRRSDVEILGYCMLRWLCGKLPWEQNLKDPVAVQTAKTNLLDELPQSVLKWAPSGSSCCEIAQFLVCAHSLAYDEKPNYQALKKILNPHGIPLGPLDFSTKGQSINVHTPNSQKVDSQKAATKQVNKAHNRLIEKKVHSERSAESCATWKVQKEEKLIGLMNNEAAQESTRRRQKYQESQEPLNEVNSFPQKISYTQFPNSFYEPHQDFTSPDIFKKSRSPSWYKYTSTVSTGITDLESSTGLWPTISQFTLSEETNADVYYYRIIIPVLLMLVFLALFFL
How it was run: as §1

`CC(=O)Nc1nc2ccc(-c3cnc(C)c(NC(=O)OC4CCCCC4)c3)cc2s1` [PK68, cyclohexyl (5-(2-acetamidobenzo[d]thiazol-6-yl)-2-methylpyridin-3-yl)carbamate] was tested, and the Activity% (ALK2/ACVR1; 1 μM) was 101.72%, the activity at 1 µM (ALK2/ACVR1) was 103% and the Activity% (ARK5/NUAK1; 1 μM) was 98.37%. The activity at 1 µM (ARK5/NUAK1) was 99.4%, the Activity% (BTK; 1 μM) was 90.38% and the activity at 1 µM (BTK) was 91.2%. It also gave an Activity% (CDC7/DBF4; 1 μM) of 104.41%, an activity at 1 µM (CDC7/DBF4) of 110% and an Activity% (CDK1/cyclin B; 1 μM) of 97.32%. The activity at 1 µM (CDK1/cyclin B) was 97.6%, the Activity% (CDK14/cyclin Y (PFTK1); 1 μM) was 96.97% and the activity at 1 µM (CDK14/cyclin Y (PFTK1)) was 97.4%. It also gave an Activity% (CDK2/cyclin A; 1 μM) of 97.94%, an activity at 1 µM (CDK2/cyclin A) of 98.5% and an Activity% (CK1g2; 1 μM) of 96.19%. The activity at 1 µM (CK1g2) was 97.8%, the Activity% (DDR2; 1 μM) was 103.50% and the activity at 1 µM (DDR2) was 105%. For the same molecule, the Activity% (EPHA5; 1 μM) was 100.43%, the activity at 1 µM (EPHA5) was 102% and the Activity% (ERBB2/HER2; 1 μM) was 97.32%. The activity at 1 µM (ERBB2/HER2) was 99.1%, the Activity% (FER; 1 μM) was 100.70% and the activity at 1 µM (FER) was 102%. The Activity% (GRK7; 1 μM) was 95.94%, the activity at 1 µM (GRK7) was 96.5% and the Activity% (IRAK4; 1 μM) was 85.85%. It also gave an activity at 1 µM (IRAK4) of 86.9%, an Activity% (MEK3; 1 μM) of 99.61% and an activity at 1 µM (MEK3) of 99.7%. It also gave an Activity% (MKK4; 1 μM) of 98.91%, an activity at 1 µM (MKK4) of 99.1% and an Activity% (MLK4; 1 μM) of 104.45%. For the same molecule, the activity at 1 µM (MLK4) was 107%, the Activity% (MSK2/RPS6KA4; 1 μM) was 106.42% and the activity at 1 µM (MSK2/RPS6KA4) was 107%. The Activity% (MST1/STK4; 1 μM) was 100.43%, the activity at 1 µM (MST1/STK4) was 100% and the Activity% (NEK11; 1 μM) was 81.13%. For the same molecule, the activity at 1 µM (NEK11) was 85.4%, the Activity% (NEK8; 1 μM) was 79.27% and the activity at 1 µM (NEK8) was 79.9%. The Activity% (OSR1/OXSR1; 1 μM) was 102.40%, the activity at 1 µM (OSR1/OXSR1) was 105% and the Activity% (P38a/MAPK14; 1 μM) was 102.59%. For the same molecule, the activity at 1 µM (P38a/MAPK14) was 106%, the Activity% (P38g; 1 μM) was 105.38% and the activity at 1 µM (P38g) was 109%. The Activity% (PBK/TOPK; 1 μM) was 97.84%, the activity at 1 µM (PBK/TOPK) was 98.4% and the Activity% (PHKg2; 1 μM) was 98.74%. The activity at 1 µM (PHKg2) was 100%, the Activity% (PKCmu/PRKD1; 1 μM) was 95.71% and the activity at 1 µM (PKCmu/PRKD1) was 96.5%. It also gave an Activity% (PKG1b; 1 μM) of 84.59%, an activity at 1 µM (PKG1b) of 85% and an Activity% (SRMS; 1 μM) of 97.95%. The activity at 1 µM (SRMS) was 99.7%, the Activity% (TEC; 1 μM) was 97.93% and the activity at 1 µM (TEC) was 99%. The Activity% (TESK1; 1 μM) was 111.93%, the activity at 1 µM (TESK1) was 118% and the Activity% (TESK2; 1 μM) was 92.21%. For the same molecule, the activity at 1 µM (TESK2) was 94.3%, the Activity% (VRK2; 1 μM) was 93.34% and the activity at 1 µM (VRK2) was 94.4%.

— paper PMC6591251, “Discovery of potent necroptosis inhibitors targeting RIPK1 kinase activity for the treatment of inflammatory disorder and cancer metastasis” (Cell Death & Disease, 2019)
